Read-outs that look alike come from different tables or passages of the source.
Key:
[1] = test system: tau hyperphosphorylation species (Ser396 and Ser404); set-up: method as in PMID 32488482; conditions: 5 mg/kg/day; cited from earlier work
[2] = test system: human nerve cells; set-up: method as in PMID 31378059; conditions: cited from earlier work
[3] = molecular target: T1, Alpha1D receptor (Homo sapiens, UniProt P25100); test: PDSP secondary binding, Alpha1D; set-up: species or system human or rodent
T1 construct: expressed in transfected cells
Method: (§1) GPCR panel: Screening against the receptors within the PDSP panel offers an assessment of off-target pharmacological activity at cloned human or rodent CNS receptors, channels, and transporters that could confound CNS-related phenotypes. A total of 46–47 primary binding assays were run in quadruplicate on these compounds at 10 μM, with follow-up secondary binding assays in 11-point dose-response in triplicate for select compounds versus select receptors. Secondary binding assays were executed for all receptors where test compound displaced an average of >50% of radio-labeled standard ligand. As an exception, no secondary assays were carried out for H3, PBR, or GABAA. […]

[4] = mouse, IV, published PK values, cited from earlier work
[5] = molecular target: T2, 5-HT2A receptor (Homo sapiens, UniProt P28223); test: PDSP secondary binding, 5-HT2A; set-up: species or system human or rodent
T2 construct: expressed in transfected cells
Method: as §1

[6] = molecular target: T3, serotonin transporter (Homo sapiens, UniProt P31645); test: PDSP secondary binding, serotonin transporter; set-up: species or system human or rodent
T3 construct: expressed in transfected cells
Method: as §1

[7] = test system: MerTK; set-up: method as in PubMed 25068800, 27649555; conditions: published affinity; ref PubMed 25068800, 27649555; cited from earlier work
[8] = molecular target: T4, H4 receptor (Homo sapiens, UniProt Q9H3N8); test: PDSP secondary binding, H4; set-up: species or system human or rodent
T4 construct: expressed in transfected cells
Method: as §1

[9] = test system: FLT3; set-up: method as in PubMed 25068800, 27649555; conditions: published affinity; ref PubMed 25068800, 27649555; cited from earlier work
[10] = molecular target: T5, norepinephrine transporter (Homo sapiens, UniProt P23975); test: PDSP secondary binding, norepinephrine transporter; set-up: species or system human or rodent
T5 construct: expressed in transfected cells
Method: as §1

[11] = test system: HMC3 (human microglia) immortalized cell line; conditions: 10 μM, human immortalized microglial cells; cited from earlier work
[12] = test system: N2a cells stably expressing wild-type PS1 and myc-tagged Swedish mutant APP (APPsw); set-up: method as in PMID 16354722; conditions: cited from earlier work

T2 sequence (P28223 whole entry): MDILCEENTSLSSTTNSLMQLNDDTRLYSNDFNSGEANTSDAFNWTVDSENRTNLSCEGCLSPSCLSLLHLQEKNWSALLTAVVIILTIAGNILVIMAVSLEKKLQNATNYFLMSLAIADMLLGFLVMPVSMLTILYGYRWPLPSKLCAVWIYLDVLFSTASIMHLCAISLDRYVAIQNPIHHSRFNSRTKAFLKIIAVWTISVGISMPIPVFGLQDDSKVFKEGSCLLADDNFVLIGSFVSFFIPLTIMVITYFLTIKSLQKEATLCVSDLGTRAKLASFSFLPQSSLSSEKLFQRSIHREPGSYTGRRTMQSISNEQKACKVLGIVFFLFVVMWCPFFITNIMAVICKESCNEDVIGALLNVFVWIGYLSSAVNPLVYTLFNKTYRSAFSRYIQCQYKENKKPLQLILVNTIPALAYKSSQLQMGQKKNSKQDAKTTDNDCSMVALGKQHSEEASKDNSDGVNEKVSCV
T5 sequence (P23975 whole entry): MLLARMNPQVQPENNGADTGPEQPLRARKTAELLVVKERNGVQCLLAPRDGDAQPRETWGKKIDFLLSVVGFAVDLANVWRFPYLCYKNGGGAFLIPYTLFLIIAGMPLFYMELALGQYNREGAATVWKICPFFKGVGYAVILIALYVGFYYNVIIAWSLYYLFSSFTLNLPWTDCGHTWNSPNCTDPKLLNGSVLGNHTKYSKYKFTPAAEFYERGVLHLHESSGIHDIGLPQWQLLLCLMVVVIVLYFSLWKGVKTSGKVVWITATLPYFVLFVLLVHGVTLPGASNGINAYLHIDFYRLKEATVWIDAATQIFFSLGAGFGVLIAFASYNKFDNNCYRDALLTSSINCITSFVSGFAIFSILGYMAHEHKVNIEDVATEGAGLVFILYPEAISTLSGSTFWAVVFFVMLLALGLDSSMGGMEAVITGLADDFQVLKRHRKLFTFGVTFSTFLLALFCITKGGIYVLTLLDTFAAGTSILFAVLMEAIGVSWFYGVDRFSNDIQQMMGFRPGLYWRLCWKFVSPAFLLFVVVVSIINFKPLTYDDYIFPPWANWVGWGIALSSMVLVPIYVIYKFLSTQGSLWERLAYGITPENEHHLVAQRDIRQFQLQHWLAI
T3 sequence (P31645 whole entry): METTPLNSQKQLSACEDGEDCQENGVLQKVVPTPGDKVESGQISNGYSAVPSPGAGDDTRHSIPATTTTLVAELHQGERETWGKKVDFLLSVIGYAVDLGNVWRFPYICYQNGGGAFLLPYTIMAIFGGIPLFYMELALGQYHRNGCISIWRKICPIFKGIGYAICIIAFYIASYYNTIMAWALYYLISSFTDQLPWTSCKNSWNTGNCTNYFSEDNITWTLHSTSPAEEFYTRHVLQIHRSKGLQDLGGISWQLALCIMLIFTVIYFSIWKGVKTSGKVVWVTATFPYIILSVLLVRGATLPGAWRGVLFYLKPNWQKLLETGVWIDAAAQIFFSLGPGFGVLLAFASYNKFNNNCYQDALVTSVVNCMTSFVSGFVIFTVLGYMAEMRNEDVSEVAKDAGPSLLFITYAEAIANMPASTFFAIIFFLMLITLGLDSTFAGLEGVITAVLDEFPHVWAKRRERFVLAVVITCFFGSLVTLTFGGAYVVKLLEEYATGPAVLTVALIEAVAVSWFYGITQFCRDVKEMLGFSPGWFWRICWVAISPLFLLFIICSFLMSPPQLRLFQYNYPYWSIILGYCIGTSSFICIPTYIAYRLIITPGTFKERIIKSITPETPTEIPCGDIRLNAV
T4 sequence (Q9H3N8 whole entry): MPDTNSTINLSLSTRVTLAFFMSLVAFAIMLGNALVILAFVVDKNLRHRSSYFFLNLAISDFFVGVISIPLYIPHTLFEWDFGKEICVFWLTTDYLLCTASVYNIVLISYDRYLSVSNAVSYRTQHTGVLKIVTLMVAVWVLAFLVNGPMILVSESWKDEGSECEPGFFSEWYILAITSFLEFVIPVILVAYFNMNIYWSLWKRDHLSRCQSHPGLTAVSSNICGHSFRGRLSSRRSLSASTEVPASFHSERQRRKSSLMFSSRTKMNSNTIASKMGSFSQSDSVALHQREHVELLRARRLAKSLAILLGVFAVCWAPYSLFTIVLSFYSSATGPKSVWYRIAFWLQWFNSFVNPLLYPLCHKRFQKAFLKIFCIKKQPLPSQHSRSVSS
T1 sequence (P25100 whole entry): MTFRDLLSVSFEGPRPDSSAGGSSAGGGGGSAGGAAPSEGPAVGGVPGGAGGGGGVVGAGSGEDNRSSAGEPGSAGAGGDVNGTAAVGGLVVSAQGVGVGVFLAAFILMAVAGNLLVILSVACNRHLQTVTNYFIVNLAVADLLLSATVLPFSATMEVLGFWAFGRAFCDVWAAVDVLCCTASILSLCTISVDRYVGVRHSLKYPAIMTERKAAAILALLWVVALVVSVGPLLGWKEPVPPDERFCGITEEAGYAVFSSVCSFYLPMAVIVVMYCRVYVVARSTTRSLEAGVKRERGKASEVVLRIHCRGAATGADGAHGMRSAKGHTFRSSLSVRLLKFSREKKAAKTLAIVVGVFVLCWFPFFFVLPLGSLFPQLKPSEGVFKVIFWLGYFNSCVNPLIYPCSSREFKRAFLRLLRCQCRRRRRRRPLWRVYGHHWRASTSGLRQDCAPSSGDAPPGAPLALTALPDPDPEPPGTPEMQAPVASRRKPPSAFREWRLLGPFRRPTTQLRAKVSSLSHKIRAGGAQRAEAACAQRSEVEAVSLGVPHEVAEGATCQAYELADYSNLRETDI

Question: Which “Tau hyperphosphorylation species (Ser396 and Ser404)” value [1] does the source give for `CCC(=O)N1CCC(NC(=O)Nc2ccc(OC(F)(F)F)cc2)CC1` [UNC10302681A, TPPU] here?
Answer: The value was “reduction of tau hyperphosphorylation species”.

Question: What about the Tau hyperphosphorylation [2] of the same molecule?
Answer: The Tau hyperphosphorylation was “prevent tau hyperphosphorylation”.

Question: Which Ki ([3]; Receptor Alpha1D, secondary assay, read-out: Ki (nM) 1) does the source give for `CCCCNc1ncc2c(-c3ccc(CN4CCN(C)CC4)cc3)cn([C@H]3CC[C@H](O)CC3)c2n1` [UNC2025C, UNC2025] here?
Answer: The Ki was 4960 nM.

Question: What about the Ki ([3]; calculated Ki, secondary binding assay, read-out: Ki Alpha1D) of the same molecule?
Answer: The Ki was 5000 nM.

Question: What about the AUClast ([4]; 3.0 mg/kg) of the same molecule?
Answer: The AUClast was 9.78 µM·h.

Question: What about the Cmax ([4]; 3.0 mg/kg) of the same molecule?
Answer: The Cmax was 4.36 µM.

Question: What about the Vss ([4]; 3.0 mg/kg) of the same molecule?
Answer: Its Vss is 2.33 L/kg.

Question: And the Ki ([5]; Receptor 5-HT2A, secondary assay, run 1, read-out: Ki (nM) 1)?
Answer: Its Ki is 366 nM.

Question: And the Ki ([5]; Receptor 5-HT2A, secondary assay, run 2, read-out: Ki (nM) 2)?
Answer: The Ki was 462 nM.

Question: And the Ki ([5]; calculated Ki, secondary binding assay, read-out: Ki 5-HT2A)?
Answer: The Ki was 400 nM.

Question: What about the Ki ([6]; Receptor SERT, secondary assay, read-out: Ki (nM) 1) of the same molecule?
Answer: Its Ki is 906 nM.

Question: What about the Ki ([6]; calculated Ki, secondary binding assay, read-out: Ki serotonin transporter) of the same molecule?
Answer: Its Ki is 900 nM.

Question: And the “Reported on-target biochemical potency, MERTK” value [7]?
Answer: Its value is 0.74 nM.

Question: What about the Ki ([8]; Receptor H4, secondary assay, read-out: Ki (nM) 1) of the same molecule?
Answer: The Ki was 4000 nM.

Question: And the Ki ([8]; calculated Ki, secondary binding assay, read-out: Ki H4)?
Answer: Its Ki is 4000 nM.

Question: What about the “Reported on-target biochemical potency, FLT3” value [9] of the same molecule?
Answer: The value was 0.8 nM.

Question: And the Ki ([10]; Receptor NET, secondary assay, read-out: Ki (nM) 1)?
Answer: The Ki was 1400 nM.

Question: And the Ki ([10]; calculated Ki, secondary binding assay, read-out: Ki norepinephrine transporter)?
Answer: Its Ki is 1400 nM.

Question: What about the “Human microglial cytotoxicity at 10 μM (<70% control)” value [11] of the same molecule?
Answer: The value was “Y (The compound was found to be cytotoxic (cell count threshold: <70% control) when human immortalized microglial cells were dosed at 10 μM (Y: yes))”.

Question: Which “Secretion of Aβ40 and Aβ42” value ([12]; 30 μM for 24 hours) does the source give for MDL 28170 [UNC10302675A] here?
Answer: The value was “did not inhibit”.

Question: And the “Levels of secreted Aβ40 and Aβ42” value ([12]; 30 μM, between 24 and 48 hours)?
Answer: The value was “increased dramatically”.

Question: And the “Response in secreted Aβ40 or Aβ42” value ([12]; concentrations < 5 μM, 48 hours)?
Answer: The value was “did not result in a response”.

Question: With `O=C(NC1CC1)C(=O)C(Cc1ccccc1)NC(=O)[C@H]1CCC(=O)N1Cc1ccccc1` (stereo partly drawn) [UNC10302676A, ABT-957 (Alicapistat)] as the molecule, how does the AUClast ([4]; 2.0 mg/kg) read?
Answer: The AUClast was 35.6 µM·h.

Question: And the CL ([4]; 2.0 mg/kg)?
Answer: Its CL is 7.8 mL/min/kg.

— PMC9005681, “Use of AD Informer Set compounds to explore validity of novel targets in Alzheimer's disease pathology” (Alzheimer's & Dementia : Translational Research & Clinical …, 2022)
